In patent publication US10238670B2, “9-aminomethyl minocycline compounds and methods of use thereof in urinary tract infection (UTI) treatment” (Paratek Pharmaceuticals, Inc., priority 2016, dated 2019):
In brackets after ≈: the same amount, converted by molar mass.

Legend:
Test in all cases: In vitro MIC, 2010 surveillance isolates
[1] = tested on: E. cloacae CeftazR; type: cell-based
[2] = tested on: K. pneumoniae ESBL+; type: cell-based, Klebsiella pneumoniae
[3] = tested on: E. coli ESBL−; type: cell-based, Escherichia coli
[4] = tested on: E. cloacae CeftazS; type: cell-based
[5] = tested on: A. baumanii; type: cell-based; details: for % R (resistance): CLSI breakpoints
[6] = tested on: K. pneumoniae ESBL−; type: cell-based, Klebsiella pneumoniae
[7] = tested on: E. coli ESBL+; type: cell-based, Escherichia coli
[8] = tested on: Acinetobacter spp; type: cell-based; details: for % R (resistance): CLSI breakpoints
[9] = tested on: K. oxytoca; type: cell-based; design: MIC90: unit: µg/mL
[10] = tested on: Enterobacter spp; type: cell-based

In the case of `CO/N=C(\C(=O)N[C@@H]1C(=O)N2C(C(=O)[O-])=C(C[N+]3(C)CCCC3)CS[C@H]12)c1csc(N)n1` [Cefepime], the “% R (resistance)” value ([1]; Asia/Pac, Eucast breakpoints) is reported as 38.1%, the MIC90 ([1]; Asia/Pac, N=63) is reported as greater than 16 µg/mL and the “% R (resistance)” value ([1]; Europe, Eucast breakpoints) is reported as 25%. For the same compound, the MIC90 ([1]; Europe, N=72) was greater than 16 µg/mL, the “% R (resistance)” value ([1]; L. Amer, CLSI breakpoints) was 26.2% and the MIC90 ([1]; L. Amer, N=42) was greater than 16 µg/mL. For the same compound, the “% R (resistance)” value ([1]; N America, CLSI breakpoints) was 6.5%, the MIC90 ([1]; N America, N=77) was 16 µg/mL (≈ 33.3 µM) and the “% R (resistance)” value ([2]; Asia/Pac, Eucast breakpoints) was 65.3%. The MIC90 ([2]; Asia/Pac, N=124) was greater than 16 µg/mL, the “% R (resistance)” value ([2]; Europe, Eucast breakpoints) was 76.8% and the MIC90 ([2]; Europe, N=151) was greater than 16 µg/mL. For the same compound, the “% R (resistance)” value ([2]; L. Amer, CLSI breakpoints) was 69.4%, the MIC90 ([2]; L. Amer, N=209) was greater than 16 µg/mL and the “% R (resistance)” value ([2]; N America, CLSI breakpoints) was 43.5%. For the same compound, the MIC90 ([2]; N America, N=108) was greater than 16 µg/mL, the “% R (resistance)” value ([3]; Asia/Pac, Eucast breakpoints) was 0% and the MIC90 ([3]; Asia/Pac, N=282) was 1 µg/mL (≈ 2.08 µM). For the same compound, the “% R (resistance)” value ([3]; Europe, Eucast breakpoints) was 0.1%, the MIC90 ([3]; Europe, N=1533) was no more than 0.12 µg/mL and the “% R (resistance)” value ([3]; L. Amer, CLSI breakpoints) was 0%. For the same compound, the MIC90 ([3]; L. Amer, N=389) was no more than 0.12 µg/mL, the “% R (resistance)” value ([3]; N America, CLSI breakpoints) was 0% and the MIC90 ([3]; N America, N=1172) was no more than 0.12 µg/mL. The “% R (resistance)” value ([4]; Asia/Pac, Eucast breakpoints) was 2%, the MIC90 ([4]; Asia/Pac, N=100) was no more than 0.12 µg/mL and the “% R (resistance)” value ([4]; Europe, Eucast breakpoints) was 1.1%. For the same compound, the MIC90 ([4]; Europe, N=183) was 0.25 µg/mL (≈ 0.52 µM), the “% R (resistance)” value ([4]; L. Amer, CLSI breakpoints) was 10.5% and the MIC90 ([4]; L. Amer, N=57) was greater than 16 µg/mL. The “% R (resistance)” value ([4]; N America, CLSI breakpoints) was 0%, the MIC90 ([4]; N America, N=210) was no more than 0.12 µg/mL and the MIC90 ([5]; Asia/Pac, N=275) was greater than 16 µg/mL. The MIC90 ([5]; Europe, N=145) was greater than 16 µg/mL, the “% R (resistance)” value ([5]; L. Amer) was 78.9% and the MIC90 ([5]; L. Amer, N=275) was greater than 16 µg/mL. The “% R (resistance)” value ([5]; N America) was 61.7%, the MIC90 ([5]; N America, N=154) was greater than 16 µg/mL and the “% R (resistance)” value ([6]; Asia/Pac, Eucast breakpoints) was 0%. For the same compound, the MIC90 ([6]; Asia/Pac, N=189) was no more than 0.12 µg/mL, the “% R (resistance)” value ([6]; Europe, Eucast breakpoints) was 0% and the MIC90 ([6]; Europe, N=361) was no more than 0.12 µg/mL. For the same compound, the “% R (resistance)” value ([6]; L. Amer, CLSI breakpoints) was 0%, the MIC90 ([6]; L. Amer, N=160) was no more than 0.12 µg/mL and the “% R (resistance)” value ([6]; N America, CLSI breakpoints) was 0%. For the same compound, the MIC90 ([6]; N America, N=671) was no more than 0.12 µg/mL, the “% R (resistance)” value ([7]; Asia/Pac, Eucast breakpoints) was 73.5% and the MIC90 ([7]; Asia/Pac, N=219) was greater than 16 µg/mL. The “% R (resistance)” value ([7]; Europe, Eucast breakpoints) was 69%, the MIC90 ([7]; Europe, N=274) was greater than 16 µg/mL and the “% R (resistance)” value ([7]; L. Amer, CLSI breakpoints) was 47%. For the same compound, the MIC90 ([7]; L. Amer, N=168) was greater than 16 µg/mL, the “% R (resistance)” value ([7]; N America, CLSI breakpoints) was 38.8% and the MIC90 ([7]; N America, N=134) was greater than 16 µg/mL. For the same compound, the MIC90 ([8]; Europe, N=43) was greater than 16 µg/mL, the “% R (resistance)” value ([8]; L. Amer) was 55.6% and the “% R (resistance)” value ([8]; N America) was 16.7%. The MIC90 ([8]; N America, N=42) was greater than 16 µg/mL, the “% R (resistance)” value ([9]; Asia/Pac, Eucast breakpoints) was 23.5% and the MIC90 ([9]; Asia/Pac, N=17) was greater than 16 µg/mL. The “% R (resistance)” value ([9]; Europe, Eucast breakpoints) was 4.4%, the MIC90 ([9]; Europe, N=158) was 1 µg/mL (≈ 2.08 µM) and the MIC90 ([9]; L. Amer, N=25) was >16 (16). For the same compound, the “% R (resistance)” value ([9]; N America, CLSI breakpoints) was 0%, the MIC90 ([9]; N America, N=177) was 0.25 µg/mL (≈ 0.52 µM) and the “% R (resistance)” value ([10]; Asia/Pac, Eucast breakpoints) was 5.8%. The MIC90 ([10]; Asia/Pac, N=52) was 1 µg/mL (≈ 2.08 µM), the “% R (resistance)” value ([10]; Europe, Eucast breakpoints) was 2.4% and the MIC90 ([10]; Europe, N=82) was 1 µg/mL (≈ 2.08 µM). For the same compound, the “% R (resistance)” value ([10]; L. Amer, CLSI breakpoints) was 14.3%, the MIC90 ([10]; L. Amer, N=42) was greater than 16 µg/mL and the “% R (resistance)” value ([10]; N America, CLSI breakpoints) was 1%. It also gave an MIC90 ([10]; N America, N=101) of 0.5 µg/mL (≈ 1.04 µM).

`CC(C)(O/N=C(\C(=O)N[C@@H]1C(=O)N2C(C(=O)[O-])=C(C[n+]3ccccc3)CS[C@H]12)c1csc(N)n1)C(=O)O` [ceftazidime] was tested, and the “resistance rates for ESBL-producing clinical isolates” value ([7]; E. coli) was 50%.
